Experimental data published in patent US20240336638A1, “IMIDAZOLE COMPOUND, AND INTERMEDIATE AND APPLICATION THEREOF” (priority 2021, published 2024).

The compounds below were run on AA-induced platelet aggregation (assay: Inhibitory effect on AA-induced platelet aggregation in rats in vitro (washed platelets)). Settings: 1*10^−4 M.
Assay type: cell-based, rat
Protocol: Several experimental groups were established, including a blank control group, an AA (arachidonic acid) model control group, and various test compounds. Each test compound had three concentration groups: 10^−3 M, 10^−4 M, and 10^−5 M. The data from the blank and model control group were shared among the different drug concentration groups as a control.
Male SD rats were anesthetized with 3% chloral hydrate (300 mg/kg) through intraperitoneal injection. After being fixed in a supine position, the skin of the neck was cut about 3 cm, bluntly separated with a hemostat, and the trachea was exposed after the common carotid artery was separated. The distal end of the common carotid artery was ligated with a fine thread, and the proximal end was clamped with an arterial clamp for vascular intubation. After the intubation was fixed, the artery clamp was opened, and the blood was placed into a blood collection tube containing 3.8% trisodium citrate so that the blood was mixed well with the 3.8% trisodium citrate in a volume ratio of 9:1.
The prepared anticoagulant blood was mixed well and centrifuged for 10 minutes at 500 rpm, then the upper layer of plasma was aspirated to obtain platelet-rich plasma (PRP), and the PRP was centrifuged again for 5 minutes at 3,000 rpm. The supernatant was discarded, and the platelet precipitate was obtained, which was washed once with Ca^2+-free HEPES-Tyrode's buffer, then centrifuged at 3,000 rpm for 5 minutes. The supernatant was discarded, and the platelets were resuspended with Ca^2+-free HEPES-Tyrode's buffer to obtain the washed platelets.
First, 300 μL of Ca^2+-containing HEPES-Tyrode's solution was taken into the test cup, put into the test wells, and calibrated by pressing the “PPP” key. Subsequently, 240 μL of the washed platelets were added to the test cup, then added with 30 μL of different concentrations of drug solution, incubated for 10 minutes at 37° C. in a preheated bath, and then put into the test wells. 3 μL of 100× CaCl2 solution (final concentration of 0.2 g/L) and 30 μL of inducer (final concentration of AA of 800 μM) were added to the test wells, and then the “Start” key was pressed immediately. The maximum aggregation rate was recorded every 60 s. The measurement was repeated three times for each concentration for 10 minutes, and the aggregation curve was plotted.
The platelet aggregation inhibition rate was calculated with the following formula:
Inhibition rate (%)=(maximum aggregation rate in the model control group−maximum aggregation rate in the administration group)/maximum aggregation rate in the model control group×100%
All data were expressed as mean±standard deviation (mean±SD). SPSS 22.0 software was used for statistical analysis of the data. Intergroup data were analyzed using one-way ANOVA, with P<0.05 considered as statistically significant and P<0.01 considered as highly significant.
In the case of `Cc1cc([C@@H]2C[C@H]2C(=O)O)ccc1Cn1cnc(Cl)c1` [Compound 4, (1R,2R)-2-(4-((4-Chloro-1H-imidazol-1-yl)methyl)-3-methylphenyl)cyclopropane-1-carboxylic acid], the “significant inhibition of AA-induced platelet aggregation” value (from here on “significant inhibition”) is reported as “can significantly inhibit”. For `Cc1cc(Cn2cnc(F)c2)ccc1[C@@H]1C[C@H]1C(=O)O` [Compound 5, (1R,2R)-2-(4-((4-Fluoro-1H-imidazol-1-yl)methyl)-2-methylphenyl)cyclopropane-1-carboxylic acid], the “significant inhibition” value was “can significantly inhibit”. `Cc1cc(Cn2ccnc2)ccc1[C@@H]1C[C@H]1C(=O)O` [Compound 7, (1R,2R)-2-(4-((1H-Imidazol-1-yl)methyl)-2-methylphenyl)cyclopropane-1-carboxylic acid] was tested, and the “significant inhibition” value was “can significantly inhibit”. With `Cc1cc([C@@H]2C[C@H]2C(=O)O)ccc1Cn1cnc(F)c1` [Compound 8, (1R,2R)-2-(4-((4-Fluoro-1H-imidazol-1-yl)methyl)-3-methylphenyl)cyclopropane-1-carboxylic acid] the “significant inhibition” value was “can significantly inhibit”. For `O=C(O)[C@@H]1C[C@H]1c1ccc(Cn2cnc(Cl)c2)c(F)c1` [Compound 14, (1R,2R)-2-(4-((4-Chloro-1H-imidazol-1-yl)methyl)-3-fluorophenyl)cyclopropane-1-carboxylic acid], the “significant inhibition” value was “can significantly inhibit”. `O=C(O)[C@H]1C[C@@H]1c1ccc(Cn2ccnc2)cc1` [Compound 20, (1S,2S)-2-(4-((1H-Imidazol-1-yl)methyl)phenyl)cyclopropane-1-carboxylic acid] was tested, and the “significant inhibition” value was “can significantly inhibit”. In the case of `Cc1cc([C@H]2C[C@@H]2C(=O)O)ccc1Cn1cnc(Cl)c1` [Compound 24, (1S,2S)-2-(4-((4-Chloro-1H-imidazol-1-yl)methyl)-3-methylphenyl)cyclopropane-1-carboxylic acid], the “significant inhibition” value is reported as “can significantly inhibit”. With `Cc1cc(Cn2cnc(F)c2)ccc1[C@H]1C[C@@H]1C(=O)O` [Compound 25, (1S,2S)-2-(4-((4-Fluoro-1H-imidazol-1-yl)methyl)-2-methylphenyl)cyclopropane-1-carboxylic acid] the “significant inhibition” value was “can significantly inhibit”. For `Cc1cc(Cn2ccnc2)ccc1[C@H]1C[C@@H]1C(=O)O` [Compound 27, (1S,2S)-2-(4-((1H-Imidazol-1-yl)methyl)-2-methylphenyl)cyclopropane-1-carboxylic acid], the “significant inhibition” value was “can significantly inhibit”. For `Cc1cc([C@H]2C[C@@H]2C(=O)O)ccc1Cn1cnc(F)c1` [Compound 28, (1S,2S)-2-(4-((4-Fluoro-1H-imidazol-1-yl)methyl)-3-methylphenyl)cyclopropane-1-carboxylic acid], the “significant inhibition” value was “can significantly inhibit”. In the case of `O=C(O)[C@H]1C[C@@H]1c1ccc(Cn2cnc(Cl)c2)c(Cl)c1` [Compound 31, (1S,2S)-2-(3-Chloro-4-((4-chloro-1H-imidazol-1-yl)methyl)phenyl)cyclopropane-1-carboxylic acid], the “significant inhibition” value is reported as “can significantly inhibit”. With `O=C(O)[C@H]1C[C@@H]1c1ccc(Cn2cnc(Cl)c2)cc1F` [Compound 33, (1S,2S)-2-(4-((4-Chloro-1H-imidazol-1-yl)methyl)-2-fluorophenyl)cyclopropane-1-carboxylic acid] the “significant inhibition” value was “can significantly inhibit”. For `O=C(O)[C@H]1C[C@@H]1c1ccc(Cn2cnc(Cl)c2)c(F)c1` [Compound 34, (1S,2S)-2-(4-((4-Chloro-1H-imidazol-1-yl)methyl)-3-fluorophenyl)cyclopropane-1-carboxylic acid], the “significant inhibition” value was “can significantly inhibit”. `O=C(O)[C@H]1C[C@@H]1c1ccc(Cn2ccnc2)c(F)c1` [Compound 35, (1S,2S)-2-(4-((1H-Imidazol-1-yl)methyl)-3-fluorophenyl)cyclopropane-1-carboxylic acid] was tested, and the “significant inhibition” value was “can significantly inhibit”. `O=C(O)[C@H]1C[C@@H]1c1ccc(Cn2cnc(F)c2)cc1F` [Compound 37, (1S,2S)-2-(2-Fluoro-4-((4-fluoro-1H-imidazol-1-yl)methyl)phenyl)cyclopropane-1-carboxylic acid] was tested, and the “significant inhibition” value was “can significantly inhibit”. With `O=C(O)[C@H]1C[C@@H]1c1ccc(Cn2cnc(F)c2)c(Cl)c1` [Compound 38, (1S,2S)-2-(3-Chloro-4-((4-fluoro-1H-imidazol-1-yl)methyl)phenyl)cyclopropane-1-carboxylic acid] the “significant inhibition” value was “can significantly inhibit”.
